Laboratory results from US10494334B2, “Compounds to inhibit calcium/calmodulin dependent protein kinase II and applications thereof” (priority 2018, dated 2019).

Legend:
[1] = system: DENV-2-eGFP reporter virus; assay: Cell-based anti-DENV-2 screening with DENV-2-eGFP reporter virus in BE(2)C cells; design: species or system type 2 dengue virus; details: Dengue virus, DENV2, BE(2)-C, 24 h, read-out: DENV-2 infection %
BE(2)C cells = assay: XTT cell proliferation assay; type: cell-based; details: Homo sapiens, 6.25 μM compound, compared to solvent control
Experimental: The cytotoxicity of candidate compounds to BE(2)C cells was evaluated by use of the cytotoxicity detection kit (LDH) (Roche), cell proliferation kit (XTT) (Roche), and Trypan blue cell counting assay. Briefly, cells were treated overnight with the candidate compounds at the indicated doses and subjected to the three assays. For LDH and XTT assays, light absorbance of the sample at 490 nm was determined by using an enzyme-linked immunosorbent assay (ELISA) reader (Molecular Devices). For Trypan blue cell counting assay, the number of viable cells was determined by use of haemocytometer. Data was normalized to solvent control and presented as a percentage.

ZIKV = assay: Virus binding/entry assays, ZIKV on BE(2)C cells
Experimental: For the virus entry assay, BE(2)C cells were first adsorbed with DENV-2 or ZIKV at 4° C. for 90 minutes. […] Thereafter, the cells were treated with an acidic glycine solution (0.1 M, pH=3) for 5 minutes to inactivate non-internalized virus and washed with cold Hank's balanced salt solution (HBSS). The cells were harvested with cell scrapers, and the adsorbed viruses were released by passing the cells through a 27-G needle 7 times. Cell lysates were centrifuged at 12,000 rpm for 1 minute, and the supernatant was used for plaque-forming assay to determine the level of virus binding and/or entry.

ZIKV PRVABC59 strain = assay: Animal study, ZIKV-infected Stat1-deficient mice; type: in vivo; details: for median survival time (T50): 8 mg/kg of body weight/day oral
Experimental: (§1) The mouse experiments were approved by the Academia Sinica Institutional Animal Care and Use Committee and performed in accordance with the guidelines. Infection was performed in mice under isoflurane anesthesia to minimize animal suffering. The DENV-2 New Guinea C strain serially passaged in mouse brain (NGC-N), kindly provided by Dr. Ching-Juh Lai (National Institutes of Health, USA) and ZIKV PRVABC59 strain were used in the animal study. Groups of 6-week-old Stat1^−/− mice were intravenously infected in the tail with 1×10^5 PFU of DENV-2 per mouse or subcutaneously infected in the footpad with 5×10^4 PFU of ZIKV per mouse. […] The mice were checked daily for severe symptoms including limb paralysis. Euthanasia of mice with severe limb paralysis was performed as the endpoint of animal survival. Mice survival was presented as percentage of survival. Mouse serum samples were collected on day 3 after infection by phlebotomy from facial vein, and the virus load was determined by plaque-forming assay.
(§2) Data are presented as mean±standard deviation and were compared by ANOVA and Bonferroni post-hoc test unless otherwise specified. Statistical significance was set at P values of <0.05 or <0.01. A survival curve was descriptively analyzed by use of SigmaPlot v10.0 (Systat software). The median survival time (T50) and P values, based on log-rank test, were determined by use of Prism v5.0 (GraphPad software). For Western blotting, the band intensity was quantified by use of ImageJ software (National Institutes of Health).

DENV-2 = assay: Virus binding/entry assays, DENV-2 on BE(2)C cells; type: cell-based, type 2 dengue virus
DENV-2 NGC-N strain = assay: Animal study, DENV-2-infected Stat1-deficient mice; type: in vivo; details: for overall survival: 6-day treatment
Experimental: as §1, §2

DENV-2 PL046 strain = assay: Antiviral assay, wild type DENV-2 in BE(2)C cells (IFA, Western blotting, plaque-forming assay); type: cell-based, type 2 dengue virus; details: three hours of treatment during viral adsorption (0-3 hpi), MOI 1, Western blot
purified human CaMKII = target: T1, purified human CaMKII (Homo sapiens, UniProt Q9UQM7); assay: CaMKII biochemical assay (CycLex CaM kinase II Assay Kit); details: syntide-2 substrate, Ca2+, calmodulin, Mg2+, ATP; normalized to solvent control
T1 construct: MBL Internationl Corp (assay kit)
T1 sequence (Q9UQM7 with tags, fused parts or gaps): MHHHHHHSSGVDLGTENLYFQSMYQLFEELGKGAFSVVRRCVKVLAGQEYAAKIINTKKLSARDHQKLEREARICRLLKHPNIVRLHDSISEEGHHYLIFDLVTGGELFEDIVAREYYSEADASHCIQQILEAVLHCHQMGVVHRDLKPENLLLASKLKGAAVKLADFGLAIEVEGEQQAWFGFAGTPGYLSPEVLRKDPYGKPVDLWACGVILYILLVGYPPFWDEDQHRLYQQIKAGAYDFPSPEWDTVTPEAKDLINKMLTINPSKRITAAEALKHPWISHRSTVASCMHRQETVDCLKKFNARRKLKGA
Experimental: A commercial CaMKII inhibitor, KN-62 (Selleckchem, S7422) was used as a positive control. Kinase reaction buffer without Ca^2+ was used as a negative control. The assay wells of the microtiter plate were then incubated with HRP-conjugated-anti-phospho-syntide-2 antibody, followed by addition of syntide-2. The phosphorylation reaction was stopped after incubation at room temperature for 15 minutes. Sample absorbance at 450 nm was determined by use of an ELISA reader (Molecular Devices). Data was normalized to solvent control and presented as a percentage.

[2] = 37° C. for 60 minutes after adsorption, dose-dependent
[3] = adsorption at 4° C. for 90 minutes
[4] = immediate treatment, 4 mg/kg of body weight/day oral
[5] = serum on day 3 after infection, plaque-forming assay, dose-dependent
[6] = 8-hours-delay treatment, 4 mg/kg of body weight/day oral
[7] = immediate treatment, 2 mg/kg of body weight/day oral

| SMILES | activity at 3.125 µM [1] | melting point | viability at 6.25 µM (BE(2)C cells) | other results |
| --- | --- | --- | --- | --- |
| COc1ccc(S(=O)(=O)N(CCCC(=O)c2ccc(F)cc2)c2ccccc2)cc1 [Compound 1, N-(4-(4-fluorophenyl)-4-oxobutyl)-4-methoxy-N-phenylbenzenesulfonamide] | 39.3% | 93 to 94 °C | 56.1% |  |
| COc1ccc(S(=O)(=O)NCCCC(=O)c2ccc(F)cc2)cc1 [Compound 3] |  | 84 to 85 °C |  |  |
| O=C(CCCN(c1ccccc1)S(=O)(=O)c1ccc(OC(F)(F)F)cc1)C1CCCC1 [Compound 11, N-(4-cyclopentyl-4-oxobutyl)-N-phenyl-4-(trifluoromethoxy)benzenesulfonamide] | 118% | 69 to 70 °C | 92.4% |  |
| COc1ccc(S(=O)(=O)N(CCCC(O)c2ccc(F)cc2)c2ccccc2)cc1 (centres unmarked) [Compound 2, N-(4-(4-fluorophenyl)-4-hydroxybutyl)-4-methoxy-N-phenylbenzenesulfonamide] | 48.5% |  | 76.3% |  |
| COc1ccc(S(=O)(=O)N(C)CCCC(=O)c2ccc(F)cc2)cc1 [Compound 4, N-(4-(4-fluorophenyl)-4-oxobutyl)-4-methoxy-N-methylbenzenesulfonamide] | 101% | 89 to 90 °C | 106% |  |
| Cc1ccc(S(=O)(=O)N(CCCC(=O)C2CCCCCC2)c2ccccc2)cc1 [Compound 13, N-(4-cycloheptyl-4-oxobutyl)-4-methyl-N-phenylbenzenesulfonamide] | 76.9% |  | 99.5% |  |
| COc1ccc(S(=O)(=O)N(CCCC(=O)C2CCCCCC2)c2ccccc2)cc1 [Compound 9, N-(4-cycloheptyl-4-oxobutyl)-4-methoxy-N-phenylbenzenesulfonamide] | 9.6% |  |  | level of ZIKV entry (ZIKV; [2]): significantly reduced; level of ZIKV binding/entry (ZIKV; MOI 10, 90 minutes at room temperature): significantly reduced; ZIKV binding to cells (ZIKV; [3]): no effect; overall survival (ZIKV PRVABC59 strain; 8-hours-delay treatment): minor effect; median survival time (T50) (ZIKV PRVABC59 strain; 8-hours-delay treatment): 10 days; overall survival (ZIKV PRVABC59 strain; [4]): did not improve; median survival time (T50) (ZIKV PRVABC59 strain; immediate treatment): 11 days; viral load (ZIKV PRVABC59 strain; [5]): significantly reduced; level of DENV-2 entry (DENV-2; [2]): significantly reduced; DENV-2 binding to cells (DENV-2; [3]): no effect; median survival time (T50) (DENV-2 NGC-N strain; 8-hours-delay treatment, 2 mg/kg of body weight/day oral): 14 days; median survival time (T50) (DENV-2 NGC-N strain; [6]): 22 days; mice protected from mortality (DENV-2 NGC-N strain; [6]): 40%; median survival time (T50) (DENV-2 NGC-N strain; [7]): 15 days; overall animal survival (DENV-2 NGC-N strain; [7]): minor effect; overall survival (DENV-2 NGC-N strain; [4]): 60%; overall survival (DENV-2 NGC-N strain; immediate treatment, 8 mg/kg of body weight/day oral): 60%; viral load (DENV-2 NGC-N strain; [5]): significantly reduced; viral-NS3 expression (DENV-2 PL046 strain): dose-dependently reduced |
| COc1ccc(S(=O)(=O)N(CCCC(=O)C2CCCCCC2)c2ccc(C3CCCCC3)cc2)cc1 [Compound 16, N-(4-cycloheptyl-4-oxobutyl)-N-(4-cyclohexylphenyl)-4-methoxybenzenesulfonamide] | 13.8% | 103 to 104 °C |  |  |
| COc1ccc(S(=O)(=O)N(CCCC(=O)C2CCCCCC2)c2ccc3c(c2)CCCC3)cc1 [Compound 15, N-(4-cycloheptyl-4-oxobutyl)-4-methoxy-N-(5,6,7,8-tetrahydronaphthalen-2-yl)-benzenesulfonamide] | 21.5% | 111 to 112 °C | 104% |  |
| COc1ccc(S(=O)(=O)N(CCCC(=O)C2CCCC2)c2ccccc2)cc1 [Compound 8, N-(4-cyclopentyl-4-oxobutyl)-4-methoxy-N-phenylbenzenesulfonamide] | 25.1% | 89 to 90 °C |  |  |
| O=C(CCCN(c1ccccc1)S(=O)(=O)c1ccc(Oc2ccccc2)cc1)C1CCCCCC1 [Compound 12, N-(4-cycloheptyl-4-oxobutyl)-4-phenoxy-N-phenylbenzenesulfonamide] | 73.4% | 127 to 128 °C | 95.5% |  |
| COc1ccc(S(=O)(=O)N(CCCC(=O)C2CCCCC2)c2ccccc2)cc1 [Compound 6, N-(4-cyclohexyl-4-oxobutyl)-4-methoxy-N-phenylbenzenesulfonamide] | 63.3% | 81 to 82 °C | 107% |  |
| COc1ccc(S(=O)(=O)N(CCCC(=O)C2C3CC4CC(C3)CC2C4)c2ccccc2)cc1 (centres unmarked) [Compound 10, N-(4-(adamantan-2-yl)-4-oxobutyl)-4-methoxy-N-phenylbenzenesulfonamide] | 51.1% | 117 to 118 °C | 96.7% |  |
| COc1ccc(S(=O)(=O)N(CCCC(=O)C2CCCCCC2)C2CCCCC2)cc1 [Compound 14, N-(4-cycloheptyl-4-oxobutyl)-N-cyclohexyl-4-methoxybenzenesulfonamide] | 65.7% |  | 97.5% |  |
| CN([C@@H](Cc1ccc(OS(=O)(=O)c2cccc3cnccc23)cc1)C(=O)N1CCN(c2ccccc2)CC1)S(=O)(=O)c1cccc2cnccc12 [KN-62, reference compound] |  |  |  | IC50 (purified human CaMKII): ~1030 nM |
| COc1ccc(S(=O)(=O)N(CCCC(C)=O)c2ccccc2)cc1 [Compound 5, 4-methoxy-N-(4-oxopentyl)-N-phenylbenzenesulfonamide] | 101% | 81 to 82 °C | 106% |  |
| COc1ccc(S(=O)(=O)N(CCCC(=O)C2CCC2)c2ccccc2)cc1 [Compound 7, N-(4-cyclobutyl-4-oxobutyl)-4-methoxy-N-phenylbenzenesulfonamide] | 33% |  | 93.9% | IC50 (purified human CaMKII): ~600 nM |
